# Source: patent US8541460B2, “PDK-1/Akt signaling inhibitors” (The Ohio State University, priority 2003, dated 2013)
# Legend:
# HT29 = experiment: NCI DTP cell line screen (SRB), Colon Cancer; type: cell-based
# NCI/ADR-RES = experiment: NCI DTP cell line screen (SRB), Breast Cancer; type: cell-based
# Procedure: (§1) Screening of compounds 70 and 71 against several cancer cell lines The human tumor cell lines of the cancer screening panel are grown in RPMI 1640 medium containing 5% fetal bovine serum and 2 mM L-glutamine. For a typical screening experiment, cells are inoculated into 96 well microtiter plates in 100 μL at plating densities ranging from 5,000 to 40,000 cells/well depending on the doubling time of individual cell lines. After cell inoculation, the microtiter plates are incubated at 37° C., 5% CO2, 95% air and 100% relative humidity for 24 h prior to addition of experimental drugs.
# (§2) After 24 h, two plates of each cell line are fixed in situ with TCA, to represent a measurement of the cell population for each cell line at the time of drug addition (Tz). Experimental drugs are solubilized in dimethyl sulfoxide at 400-fold the desired final maximum test concentration and stored frozen prior to use. At the time of drug addition, an aliquot of frozen concentrate is thawed and diluted to twice the desired final maximum test concentration with complete medium containing 50 μg/ml gentamicin. Additional four, 10-fold or ½ log serial dilutions are made to provide a total of five drug concentrations plus control. Aliquots of 100 μl of these different drug dilutions are added to the appropriate microtiter wells already containing 100 μl of medium, resulting in the required final drug concentrations.
# (§3) Following drug addition, the plates are incubated for an additional 48 h at 37° C., 5% CO2, 95% air, and 100% relative humidity. For adherent cells, the assay is terminated by the addition of cold TCA. Cells are fixed in situ by the gentle addition of 50 μl of cold 50% (w/v) TCA (final concentration, 10% TCA) and incubated for 60 minutes at 4° C. The supernatant is discarded, and the plates are washed five times with tap water and air dried. Sulforhodamine B (SRB) solution (100 μl) at 0.4% (w/v) in 1% acetic acid is added to each well, and plates are incubated for 10 minutes at room temperature. After staining, unbound dye is removed by washing five times with 1% acetic acid and the plates are air dried. Bound stain is subsequently solubilized with 10 mM trizma base, and the absorbance is read on an automated plate reader at a wavelength of 515 nm. For suspension cells, the methodology is the same except that the assay is terminated by fixing settled cells at the bottom of the wells by gently adding 50 μl of 80% TCA (final concentration, 16% TCA). Using the seven absorbance measurements [time zero, (Tz), control growth, (C), and test growth in the presence of drug at the five concentration levels (Ti)], the percentage growth is calculated at each of the drug concentrations levels. Percentage growth inhibition is calculated as: [(Ti−Tz)/(C−Tz)]×100 for concentrations for which Ti>/=Tz [(Ti−Tz)/Tz]×100 for concentrations for which Ti<Tz
# (§4) Three dose response parameters are calculated for each experimental agent. […] The drug concentration resulting in total growth inhibition (TGI) is calculated from Ti=Tz. […] Values are calculated for each of these three parameters if the level of activity is reached; however, if the effect is not reached or is exceeded, the value for that parameter is expressed as greater or less than the maximum or minimum concentration tested.
# (§5) The methods described were used to test compounds 70 and 71 on a panel of sixty cell lines under a screening service provided by the Developmental Therapeutics Program at the National Institutes of Health. Shown in FIG. 1C are 1, RPMI-8226 leukemia cells; 2; NCI-H322M non-small cell lung cancer cells; 3, HT29 colon cancer cells; 4, U251 CNS cancer cells; 5, SK-MEL-28 melanoma cancer cells; 6, SK-OV-3 ovarian cancer cells; 7, RXF 393 renal cancer cells; 8, PC-3 prostate cancer cells; 9, MDA-MB-231 breast cancer cells.
# HCT-15 = experiment: NCI DTP cell line screen (SRB), Colon Cancer; type: cell-based
# KM12 = experiment: NCI DTP cell line screen (SRB), Colon Cancer; type: cell-based
# Procedure: as §1, §2, §3, §4, §5
# HCT-116 = experiment: NCI DTP cell line screen (SRB), Colon Cancer; type: cell-based
# Procedure: as §1, §2, §3, §4, §5
# SW-620 = experiment: NCI DTP cell line screen (SRB), Colon Cancer; type: cell-based
# Procedure: as §1, §2, §3, §4, §5
# phospho-473Ser Akt = experiment: Western blot of Akt and phospho-Akt in PC-3 cells; type: cell-based, human; conditions: 1 μM
# Procedure: Immunoblotting. The general procedure for the Western blot analysis of Akt and phospho-Akt is described as follows. Cells were washed in PBS, resuspended in SDS sample buffer sonicated by an ultrasonic sonicator for 5 sec, and boiled for 5 min. After brief centrifugation, equivalent protein concentrations from the soluble fractions were resolved in 10% SDS-polyacrylamide gels on a Minigel apparatus, and transferred to a nitrocellulose membrane using a semi-dry transfer cell. The transblotted membrane was washed three times with TBS containing 0.05% Tween 20 (TBST). After blocking with TBST containing 5% nonfat milk for 60 min., the membrane was incubated with the primary antibody at 1:1,000 dilution in TBST-5% low fat milk at 4° C. for 12 h, and was then washed three times with TBST. The membrane was probed with goat anti-rabbit IgG-HRP conjugates (1:1,000) for 1 h at room temperature, and was washed with TBST three times. The immunoblots were visualized by enhanced chemiluminescence.
smiles,measurement,setting,value
"NCC(=O)Nc1ccc(-n2nc(C(F)(F)F)cc2-c2ccc3c(ccc4ccccc43)c2)cc1 [Compound 70, 2-Amino-N-{4-[5-(2-phenanthrenyl)-3-(trifluoromethyl)-1H-pyrazol-1-yl]-phenyl}-acetamide]",TGI,HT29,2.64E−06
same,Percent Growth,HT29; Log10 Concentration −4.0,−26%
same,Percent Growth,HT29; Log10 Concentration −5.0,−65%
same,Percent Growth,HT29; Log10 Concentration −6.0,47%
same,Percent Growth,HT29; Log10 Concentration −7.0,88%
same,Percent Growth,HT29; Log10 Concentration −8.0,92%
same,TGI,NCI/ADR-RES,2.85E−06
same,Percent Growth,NCI/ADR-RES; Log10 Concentration −4.0,−62%
same,Percent Growth,NCI/ADR-RES; Log10 Concentration −5.0,−59%
same,Percent Growth,NCI/ADR-RES; Log10 Concentration −6.0,49%
same,Percent Growth,NCI/ADR-RES; Log10 Concentration −7.0,98%
same,Percent Growth,NCI/ADR-RES; Log10 Concentration −8.0,98%
same,TGI,HCT-15,3.19E−06
same,Percent Growth,HCT-15; Log10 Concentration −5.0,−47%
same,Percent Growth,HCT-15; Log10 Concentration −6.0,47%
same,Percent Growth,HCT-15; Log10 Concentration −7.0,54%
same,Percent Growth,HCT-15; Log10 Concentration −8.0,81%
same,TGI,KM12,2.67E−06
same,Percent Growth,KM12; Log10 Concentration −4.0,−51%
same,Percent Growth,KM12; Log10 Concentration −5.0,−73%
same,Percent Growth,KM12; Log10 Concentration −6.0,54%
same,Percent Growth,KM12; Log10 Concentration −7.0,91%
same,Percent Growth,KM12; Log10 Concentration −8.0,98%
same,Percent Growth,HCT-116; Log10 Concentration −4.0,5%
same,Percent Growth,HCT-116; Log10 Concentration −5.0,−9%
same,Percent Growth,HCT-116; Log10 Concentration −6.0,57%
same,Percent Growth,HCT-116; Log10 Concentration −7.0,93%
same,Percent Growth,HCT-116; Log10 Concentration −8.0,107%
same,TGI,SW-620,4.23E−06
same,Percent Growth,SW-620; Log10 Concentration −4.0,−28%
same,Percent Growth,SW-620; Log10 Concentration −5.0,−32%
same,Percent Growth,SW-620; Log10 Concentration −6.0,54%
same,Percent Growth,SW-620; Log10 Concentration −7.0,100%
same,Percent Growth,SW-620; Log10 Concentration −8.0,100%
same,phospho-Akt level,phospho-473Ser Akt,substantial decrease in the phospho-Akt level
